Reference: patent US20060013804A1, “Modulation of stem cell differentiation by modulation of caspase-3 activity” (Ottawa Health Research Institute, priority 2002, published 2006)

Tests used:
[1] = tested on: primary striatal stem cells (neurospheres); assay: Primary striatal neurospheres with or without caspase-3 inhibitor, immunostaining for neural lineage markers; assay type: cell-based, mouse; conditions: 1 μM inhibitor
Procedure: After sacrificing, the abdomen was sprayed with 70% ethanol. A 2 cm incision is made vertically up the abdomen. The horn was removed with sterile tweezers, and placed in PBS. The horn was cut open the horn to expose one embryo at a time and each embryo was placed in a separate 35 mm tissue culture dish containing 2 ml PBS. Each embryo was pinned to the dish and the cortex peeled off layer by layer to expose the striatum, which was then removed. The striatal tissue was placed in a 50 ml Falcon Tube containing cold Hank's Balanced Salt Solution (HBSS) on ice and the tissue allowed to settle at the bottom of the tube. The HBSS was replaced with 2 ml of Complete Neurocult Proliferation Media and the tissue triturated gently until only a few fragments of tissue remained. The supernatant was then collected and the fragments of tissue were triturated in 1 ml media. The supernatant was again removed and stored with the first supernatant that was collected.
At this point the number of cells can be counted using an aliquot of Trypan Blue (1/5 dilution). Cells were seeded at a density of 1 million cells per 25 ml of Complete Proliferation Media and grown in Complete Neurocult Proliferation Media for 4 days, at which time they were expanded if the plates appeared too confluent. If expansion was not necessary, the cells were allowed to grow for a few more days prior to harvesting. To expand the primary culture, half the cell suspension was placed in a new dish and 12.5 ml of Complete Proliferation Media was added to each of the initial plate and the expanded plate. After a few days, once most of the spheres had lifted off the dish, the sphere suspension was confluent. At this time, cells were either passaged in growth media, frozen, or plated onto a differentiation plate.
Plating and Differentiation of Striatal Stem Cells: In order to differentiate neurospheres, they must be plated onto a surface coated with Laminin and Poly-D-Lysine. The sphere suspension was collected from a 10 cm dish, placed in a 50 ml tube and centrifuged at 500 rpm for 5 min at 4° C. The supernatant was aspirated and discarded, then 2 ml of Complete Neurocult Proliferation Media was added and the sphere pellet gently triturated until the spheres were resuspended. The sphere suspension was then diluted in Complete Neurocult Proliferation Media to obtain the desired concentration (one 10 cm dish of neurospheres is appropriate for approximately 4 coated chamber slides). 2 ml aliquots of sphere suspension were plated per chamber and after a few hours at 37° C., the medium was changed to Complete Neurocult Differentiation media.
Paraformaldehyde (PFA) Fixing of Cells: Freshly made 4% PFA was used. Media was aspirated out of wells and each well was washed with 2 ml PBS for 3 min. […]

p38α = assay: Immunoprecipitation/kinase assay of p38α from neurospheres; assay type: cell-based, mouse; conditions: differentiation media under caspase 3 inhibition
Procedure: Immunoprecipitation/Kinase activity assays: Immunoprecipitation/kinase analyses were performed as previously described (Fernando, P., et al., (2002) Proc Natl Acad Sci USA 99, 11025-11030). Cellular lysates from neurospheres were generated as described above. Antibodies against apoptotic signal-regulating kinase 1 (ASK1) (Upstate, USA), p21 activated kinase 1 (PAK1) (Cell Signaling Technologies, USA), and p38 MAPK (Santa Cruz, USA) were used to immunoprecipitate respective proteins. Samples were mixed with Protein G-sepharose beads for 1 h, washed and then mixed with kinase assay buffer containing myelin basic protein (MBP) and γ-32P[ATP]. Samples were reacted at 30° C. for 30 min and separated using SDS-PAGE. In some instances, samples were transferred to PVDF membrane following electrophoresis. To quantify kinase activities, MBP acrylamide bands were excised and solubilized in scintillation fluid prior to 32P-liquid scintillation analyses. In all cases, an activated recombinant mitogen activated protein kinase activated protein-2 (MAPKAP kinase-2) (Upstate, USA) was used as an internal control for liquid scintillation analyses.
ASK1 activity was reduced when cells were treated with differentiation media containing z-DEVD (DEVD condition) compared to differentiation media alone (DMSO condition) (FIG. 19c,d). Both PAK1 and ASK1 have been linked to the downstream activity of p38 MAPK. […]

p38α kinase activity (p38α): very low levels of p38α kinase activity
Structure (SMILES): COC(=O)CC[C@H](NC(=O)[C@H](CC(=O)OC)NC(=O)OCc1ccccc1)C(=O)N[C@H](C(=O)N[C@@H](CC(=O)OC)C(=O)CF)C(C)C [z-DEVD.fmk]
glial fibrillary acid protein staining (astrocytes) ([1]; 48 h differentiation): showed no staining for astrocytes
myelin basic protein staining (oligodendricytes) ([1]; 48 h differentiation): did not stain positive for oligodendricytes
nestin staining after differentiation ([1]; 48 h differentiation): retain their undifferentiated lineage as demonstrated by the presence of nestin
cell cycling (nestin staining during proliferation) ([1]; proliferating striatal stem cells): does not have an effect on cell cycling
